Measured values from article PMC6359144 (International Journal of Molecular Sciences, 2019).
Where two headings read alike, the source gives them in different places.

Tests used:
[1] = tested on: MCF-7^Topo breast adenocarcinoma cells; assay: MTT assay, MCF-7^Topo breast carcinoma cells; assay type: cell-based; conditions: Homo sapiens, MCF7/Topo, read-out: IC50 MCF-7^Topo (72 h)
Protocol: (§1) HT-29 (ACC-299), HCT-116 (ACC-581) and DLD-1 (ACC-278) colon carcinoma, MCF-7 (ACC-115) breast carcinoma, KB-V1 (ACC-149), 518A2 (Department of Radiotherapy and Radiobiology, University Hospital Vienna) melanoma and Ea.Hy926 (ATCC no. CRL-2922) HUVEC derived endothelial hybrid cells line were grown in Dulbecco’s Modified Eagle Medium (DMEM; Biochrom), high glucose supplemented with 10% (v/v) fetal bovine serum (FBS; Biochrom.) and 1% (v/v) Antibiotic-Antimycotic solution (anti-anti; Thermo Scientific). HDFa human dermal fibroblasts (ATCC: PCS-201-012™) were grown in DMEM supplemented with 10% FBS, 1% anti-anti and 2 mM glutamine. The cells were incubated at 37 °C, 5% CO2, 95% humidified atmosphere. By repeated addition of topotecan or vinblastine at the maximum tolerated dose to the cell medium of MCF-7 and KB-V1 cells, the cells were rendered multidrug-resistant, indicated as MCF-7^Topo and KB-V1^Vbl, respectively. They were serially passaged following trypsinization by using 0.05% trypsin/0.02% EDTA (Biochrom). Mycoplasma contamination was routinely monitored, and only mycoplasma–free cultures were used.
(§2) MTT [3-(4,5-dimethylthiazol-2-yl)-2,5-diphenyltetrazolium bromide] (ABCR) was used to determine the cytotoxicity of test compounds as previously described. Briefly, HDFa human dermal fibroblasts and Ea.Hy926 endothelial hybrid cells (both 1 × 10^5 cells/mL, 100 µL/well), 518A2 melanoma, KB-V1^Vbl cervix carcinoma, MCF-7^Topo breast carcinoma, HT-29, DLD-1 and HCT-116 colon carcinoma (all 5 × 10^4 cells/mL, 100 µL/well) were grown in 96-well culture plates for 24 h. Then, various concentrations of the test compounds were added and the cells were incubated for 24-72 h at 37 °C. After adding 12.5 µL of a 0.5% MTT solution in PBS (final concentration 0.05%) to cell medium, microplates were incubated for 2 h and subsequently swiftly turned to discard the medium. The precipitate of formazan crystals was then dissolved in a 10% solution of SDS in DMSO containing 0.6% acetic acid. To ensure complete dissolution of formazan, microplates were incubated for at least 4 h at 37 °C. Finally, the absorbance at λ = 570 nm (formazan) and 630 nm (background) was measured using a microplate reader (Tecan F200). All experiments were carried out in quadruplicate and the percentage of viable cells was calculated as the mean ± SD with controls set to 100%. Selected graphs of MTT assays can be found in the Supporting Information (Figure S8).

[2] = tested on: HT-29 colon carcinoma cells; assay: MTT assay, HT-29 colon carcinoma cells; assay type: cell-based, human; conditions: Homo sapiens, MTT
Protocol: as §1, §2

[3] = tested on: non-malignant HDFa dermal fibroblasts; assay: MTT assay, HDFa dermal fibroblasts; assay type: cell-based; conditions: Homo sapiens, read-out: IC50 HDFa (72 h)
Protocol: as §1
MTT [3-(4,5-dimethylthiazol-2-yl)-2,5-diphenyltetrazolium bromide] (ABCR) was used to determine the cytotoxicity of test compounds as previously described. Briefly, HDFa human dermal fibroblasts and Ea.Hy926 endothelial hybrid cells (both 1 × 10^5 cells/mL, 100 µL/well), 518A2 melanoma, KB-V1^Vbl cervix carcinoma, MCF-7^Topo breast carcinoma, HT-29, DLD-1 and HCT-116 colon carcinoma (all 5 × 10^4 cells/mL, 100 µL/well) were grown in 96-well culture plates for 24 h. Then, various concentrations of the test compounds were added and the cells were incubated for 24-72 h at 37 °C. […] Finally, the absorbance at λ = 570 nm (formazan) and 630 nm (background) was measured using a microplate reader (Tecan F200). All experiments were carried out in quadruplicate and the percentage of viable cells was calculated as the mean ± SD with controls set to 100%. […]

[4] = tested on: DLD-1 colon carcinoma cells; assay: MTT assay, DLD-1 colon carcinoma cells; assay type: cell-based; conditions: Homo sapiens, DLD-1, read-out: IC50 DLD-1 (72 h)
Protocol: as §1, §2

[5] = tested on: p21, p27, cyclin D1 in 518A2 melanoma cells; assay: Western blot of cell cycle regulatory proteins; assay type: cell-based, human; conditions: 24 h; for effect on p21 expression: 4d […]–4 µM, SAHA 5 µM
Protocol: After harvesting and lysing of the cells, western blotting was performed as described before. For subsequent analysis, the protein-loaded membranes were incubated with antibodies directed against p21 (Abcam ab109199), p27 ([…]), cyclin D1 (Cell Signaling 29225) and GADPH (Santa Cruz sc25778) in 1:1000 dilutions. After incubation with horseradish peroxidase-coupled anti-IgG antibodies (1:10,000; Amersham), the blot was developed using the Celvin-S developer (Biostep) and the software SnapAndGo 1.8.1.

518A2 melanoma cells = assay: DCFH-DA assay of intracellular ROS; assay type: cell-based, human; conditions: 10 µM, 1 h, vehicle treated controls set to 100%
From the text: Gosch 2,3, Alexandra […] Rothemund 1, Thomas Mueller 4, […] Schobert 1, Bernhard Biersack 1,*, Andrea Volkamer 3 and Michael […] 2,* 1 Department of Chemistry, University of […], Germany; florian1.schmitt@uni-[…].rothemund@uni -[…].schobert@uni - bayreuth.de (R.S.) 2 Institute of Physiology, Charité-Universitätsmedizin Berlin, Charitéplatz 1, 10117 Berlin, Germany; […].), alexandra.[…].) 3 In Silico Toxicology Group, Institute of Physiology, Charité-Universitätsmedizin Berlin, Charitéplatz 1, 10117 Berlin, Germany; […] 4 Internal Medicine IV, University Hospital […], Germany; thomas.mueller@medizin.uni-[…] * Correspondence: bernhard.biersack@yahoo.com (B.B.); michael.hoepfner@charite.de (M.H.); Tel.: +49-921- 55- 2673 (B.B.); Tel: +49-030-450-528 -515(M.H.); Table of content Material and Methods ... S1 DCFH-DA assay. ... S1 Immuofluorescence staining of acetylated alpha-tubulin ... S2 Wound healing assay ... S2 Results ... S3 Effect on the microtubule cytoskeleton ... S3 Effect on the intracellular ROS levels ... S3 Effect on the acetylation of alpha-tubulin ... S3 Effect on migratory activity ... S5 Effect on mouse weight ... S6 Graphs of MTT assays ... S7 S1 Material and Methods DCFH-DA assay. The assay was performed as previously described. […] 100 μL/well) were grown in a black 96-well plate for 24 h. Then, the cell medium was exchanged for […] After […] and vehicle (DMSO) in serum-free DMEM for 1 h at 37 °C. Then, the cells were washed twice with 100 μL PBS and subsequently placed in a microplate reader (TECAN). The DCF-fluorescence (λex = 485 nm, λem = 535 nm) as a measure of ROS production was determined and that of vehicle treated controls set to 100%. Values exceeding 100% indicate a drug-induced ROS generation. The values of six independent assays were depicted as the means ± SD. There were no outliers and the data fulfilled variance homogeneity (Levene's test, p > 0.05).

[6] = HT-29, read-out: IC50 HT-29 (72 h), 72 h
[7] = HT-29, 24 h, read-out: IC50 HT-29 (24 h)

Row | Structure (SMILES) | IC50 [1] | IC50 [2, 6] | IC50 [2, 7] | IC50 [3] | IC50 [4] | effect on p21 expression [5] | effect on cyclin D1 level ([5]; 4d 0.15–4 µM) | intracellular ROS level (518A2 melanoma cells)
1 | COc1ccc(-c2ocnc2-c2cc(Br)c(OC)c(OC)c2)cc1OCCCC(=O)NO [4d, N-Hydroxy-4-[1-methoxy-4-(4’-(3’’-bromo-4’’,5’’-dimethoxyphenyl)oxazol-5’-yl)-2-phenoxy]butanamide] | 2.8 ± 0.3 µM | 1.4 ± 0.2 µM | 1.3 ± 0.3 µM | 23.9 ± 1.6 µM | 0.29 ± 0.02 µM | distinctly suppressed p21 expression | increased the level of cyclin D1 | 241% ± 17
2 | COc1ccc(-c2ocnc2-c2cc(Br)c(OC)c(OC)c2)cc1OCCCCC(=O)NO [4e, N-Hydroxy-5-[1-methoxy-4-(4’-(3’’-bromo-4’’,5’’-dimethoxyphenyl)oxazol-5’-yl)-2-phenoxy]pentanamide] | 3.4 ± 0.2 µM | 1.9 ± 0.2 µM | 2.1 ± 0.6 µM | > 100 µM | 2.1 ± 0.4 µM | – | – | 230 ± 31%
3 | COc1ccc(-c2ocnc2-c2cc(Br)c(OC)c(OC)c2)cc1OCCCCCC(=O)NO [4f, N-Hydroxy-6-[1-methoxy-4-(4’-(3’’-bromo-4’’,5’’-dimethoxyphenyl)oxazol-5’-yl)-2-phenoxy]hexanamide] | 8.3 ± 0.7 µM | 14.2 ± 1.6 µM | 6.6 ± 0.6 µM | > 50 µM | 4.1 ± 0.3 µM | upregulated p21 expression in a dose-dependent way | – | 198 ± 24%
